These results are taken from PubChem BioAssay (NCI).

Common to all, as to assay: inhibition of tumour cell growth, NCI panel, 48 h
Assay [1] has as its system LOX IMVI melanoma.
Assay [2] relates to TK-10 renal.
The test system of assay [3] is SK-OV-3 ovarian.
For assay [4], the system named is M19-MEL melanoma.
Assay [5] has as its system DMS 273 small cell lung.
Assay [6] relates to UO-31 renal.
In assay [7] the test system is HCT-15 colon.
Assay [8] deals with UACC-257 melanoma.
For assay [9], the system named is RXF 393 renal.
For assay [10], the system named is T-47D breast.

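Dose response: 5 concentrations. Exposure: 48 h. Format: 96-well plates. Endpoint: linear interpolation; highest concentration if not reached. GI50: concentration for 50% inhibition of growth. Definition used: TGI = concentration required for complete inhibition of growth.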 Some results are limits rather than exact numbers.

On to `COCC(O)Cn1ccnc1[N+](=O)[O-]` (stereo not drawn), for which the TGI in assay [1], in assay [2], in assay [3], in [4], in [5] and in assay [6] was > 100 µM throughout. Besides, the TGI in assay [7] and in [8] was > 100 µM throughout.
Take `Cc1cc2c(C)nn(Cc3ccccc3)c2c(C(N)=O)c1C`: the TGI in assay [1], in assay [2], in assay [3], in assay [4], in assay [5] and in assay [6] was > 100 µM in each case. Besides, the TGI in [7] and in assay [8] was > 100 µM in each case.
As to `COC1OC(CBr)C(OC(=O)c2ccccc2)C(O)C1Br` (stereo not drawn), the TGI in assay [1], in assay [2], in assay [4], in assay [5], in [9] and in assay [7] was > 100 µM throughout. Besides, the TGI in assay [8] was > 10 µM.
On to `N.N.N.N.N.[Cl-].[Co+3].c1ccc(-c2nn[n-]n2)cc1`, for which the GI50 in [1], in assay [2], in [3], in assay [5], in assay [9] and in assay [6] was > 100 µM each time. In addition, the GI50 in assay [7] and in assay [8] was > 100 µM in each case. The TGI in assay [1], in assay [2], in assay [3], in assay [5], in assay [9] and in [6] was > 100 µM each time. In addition, the TGI in assay [7] and in assay [8] was > 100 µM each time.
For the compound `O=c1[nH]nc2ccccc2c1Cc1ccccc1`, the TGI in assay [1], in assay [2], in [3], in assay [4], in assay [5] and in [6] was > 100 µM each time. Also, the TGI in [7] and in [8] was > 100 µM in each case.
As to `C1COCCN1.C1COCCN1.NC1CCCCC1N.[Cl-].[Pt+2]` (stereo not drawn), the GI50 in assay [1], in assay [2], in [3], in assay [4], in assay [9] and in assay [6] was > 100 µM each time. The GI50 in [8] was > 100 µM. Also, the TGI in [1], in assay [2], in assay [3], in assay [4], in [9] and in [6] was > 100 µM each time. In addition, the TGI in assay [8] is > 100 µM.
For `CCOC(=O)c1c2c(n(Cc3ccc(Cl)cc3Cl)c1C)-c1nc[nH]c1C(=O)C2=O`, the GI50 was 3.54 µM in [1]; 20.1 µM in assay [2]; 19.9 µM in assay [3]; 10.2 µM in assay [9]; 12.4 µM in assay [6]; 11 µM in [7]. Moreover, the GI50 in assay [10] is 1.65 µM; in assay [8] it was 14.2 µM. Further, the TGI came to 13.7 µM in [1]; 41.2 µM in assay [2]; 34.2 µM in [3]; 22.7 µM in assay [9]; 49.5 µM in assay [6]; 23 µM in assay [7]. Moreover, the TGI in [10] is 5.03 µM; in assay [8], 27.3 µM.
With `C1=CC=C2NCCCCCCCNC3=CC=CC=CC3=NCCCCCCCN=C2C=C1`, the TGI in assay [1] is > 100 µM; in [4], > 100 µM; in [5] it was 39.9 µM; in [9], 39.5 µM; in [6] it was > 100 µM; in assay [7] it was > 100 µM. The TGI in [8] is > 100 µM.
Turning to `O=C(O)c1cc2ccc3ccccc3c2oc1=O`, the TGI in assay [1], in assay [2], in assay [3], in [9], in assay [6] and in assay [7] was > 100 µM each time. Also, the TGI in [10] and in assay [8] was > 100 µM each time.
On to `O=[N+]([O-])c1ccc2c(c1)Cc1cc(N=Cc3ccc4c(c3)OCO4)ccc1-2`, for which the TGI in assay [1], in assay [2], in assay [3], in [9], in [6] and in [7] was > 100 µM in each case. In addition, the TGI in assay [10] and in assay [8] was > 100 µM throughout.
In the case of `CCOC(=O)c1cc2c(n1Cc1cccc(OC)c1)-c1oncc1CCC2`, the GI50 was 2.93 µM in assay [1]; 7 µM in assay [2]; 3.48 µM in assay [3]; 1.07 µM in [9]; 4.48 µM in assay [6]; 0.473 µM in assay [7]. The GI50 in assay [10] is 1.27 µM; in assay [8] it was 3.51 µM. Further, the TGI is > 100 µM in assay [1]; > 100 µM in assay [2]; > 100 µM in [3]; 6.89 µM in [9]; > 100 µM in [6]; > 100 µM in [7]. In addition, the TGI in [10] and in [8] was > 100 µM in each case.
Turning to `O=C1c2cccc(NCCN=Cc3cc([N+](=O)[O-])ccc3O)c2C(=O)c2c(NCCN=Cc3cc([N+](=O)[O-])ccc3O)cccc21`, the GI50 in assay [1] is 2.62 µM; in assay [2] it was 28.5 µM; in [3], 18.9 µM; in assay [9], 7.01 µM; in assay [6] it was 8.34 µM; in assay [7], 30.3 µM. Further, the GI50 in assay [10] was 9.38 µM; in assay [8], > 100 µM. Further, the TGI is 29.1 µM in [1]; > 100 µM in [2]; > 100 µM in [3]; > 100 µM in [9]; > 100 µM in [6]; > 100 µM in [7]. In addition, the TGI in [10] and in assay [8] was > 100 µM throughout.
Consider `Cc1cc(Cl)ccc1Nc1nc(C(F)(F)F)ccc1C(=O)N/N=C/c1ccc(Cl)cc1`, for which the GI50 is 1.38 µM in assay [1]; 1.66 µM in [2]; 1.69 µM in assay [3]; 3.08 µM in assay [9]; 1.5 µM in [6]; 0.895 µM in assay [7]. Besides, the GI50 in assay [10] is 2.17 µM; in [8], 3.67 µM. Further, the TGI in [1] is 11.7 µM; in assay [2], 7.01 µM; in assay [3], 5.57 µM; in assay [9], 22.2 µM; in [6], 6.04 µM; in [7], 13.1 µM. For the same compound, the TGI in assay [10] turned out to be 9.26 µM; in assay [8], 16.3 µM.
